Measured values from patent US8518931B2, “Compounds and compositions as kinase inhibitors” (IRM LLC, priority 2008, dated 2013).

What follows are compounds tested against T1, NPM-ALK (Homo sapiens, UniProt Q9UM73) (assay: NPM-ALK BaF3 assay (growth inhibition of BaF3-NPM-ALK cells)). Conditions: human NPM-ALK overexpressing murine BaF3 cells.
T1 construct: nucleophosmin (NPM, NPM1; human P06748) fusion partner; expressed in transfected cells; host or cells: murine BaF3 cells (DSMZ), transfected with pCIneo (Promega) coding for NPM-ALK and selected with G418; the other entry of the earlier key: Npm1 (Q61937, Nucleophosmin)
Type: cell-based
Text: The expression of NPM-ALK may be achieved by transfecting the BaF3 cell line with an expression vector pClneo™ (Promega Corp., Madison Wis., USA) coding for NPM-ALK and subsequent selection of G418 resistant cells. Non-transfected BaF3 cells depend on IL-3 for cell survival. In contrast, NPM-ALK expressing BaF3 cells (named BaF3-NPM-ALK hereinafter) can proliferate in the absence of IL-3 because they obtain proliferative signal through NPM-ALK kinase. Putative inhibitors of the NPM-ALK kinase therefore abolish the growth signal and may result in antiproliferative activity. The antiproliferative activity of putative inhibitors of the NPM-ALK kinase can however be overcome by addition of IL-3, which provides growth signals through an NPM-ALK independent mechanism. An analogous cell system using FLT3 kinase has also been described (see, E Weisberg et al. Cancer Cell; 1, 433-443 (2002)).
The inhibitory activity of the compounds of the invention may be determined as follows. In general, BaF3-NPM-ALK cells (15,000/microtitre plate well) are transferred to 96-well microtitre plates. Test compounds dissolved in dimethyl sulfoxide (DMSO) are added in a series of concentrations (dilution series) in such a manner that the final concentration of DMSO is not greater than 1% (v/v). After the addition, the plates are incubated for two days during which the control cultures without test compound are able to undergo two cell-division cycles. The growth of the BaF3-NPM-ALK cells is measured by means of YOPRO™ staining [T Idziorek et al. J. Immunol. Methods; 185: 249-258 (1995)]: 25 μl of lysis buffer comprising 20 mM sodium citrate, pH 4.0, 26.8 mM sodium chloride, 0.4% NP40, 20 mM EDTA and […] to each well. Cell lysis is completed within 60 min at room temperature and total amount of YOPRO™ bound to DNA is determined by measurement using the Cytofluor II 96-well reader (PerSeptive Biosystems) with the following settings: Excitation (nm) 485/20 and Emission (nm) 530/25.
IC50 values may be determined by a computer-aided system using the formula: IC50=[(ABStest−ABSstart)/(ABScontrol−ABSstart)]×100·(ABS=absorption)
In general, compounds of the invention have IC50 values from 1 nM to 10 μM. In some examples, compounds of the invention have IC50 values from 0.01 μM to 5 μM. In other examples, compounds of the invention have IC50 values from 0.01 μM to 1 μM, or more particularly from 1 nM to 1 μM.
Table 1 describes representative compounds of the invention, prepared following the procedures described above. IC50 values are as measured in an NPM-ALK BaF3 assay.

T1 sequence (Q9UM73 with tags, fused parts or gaps): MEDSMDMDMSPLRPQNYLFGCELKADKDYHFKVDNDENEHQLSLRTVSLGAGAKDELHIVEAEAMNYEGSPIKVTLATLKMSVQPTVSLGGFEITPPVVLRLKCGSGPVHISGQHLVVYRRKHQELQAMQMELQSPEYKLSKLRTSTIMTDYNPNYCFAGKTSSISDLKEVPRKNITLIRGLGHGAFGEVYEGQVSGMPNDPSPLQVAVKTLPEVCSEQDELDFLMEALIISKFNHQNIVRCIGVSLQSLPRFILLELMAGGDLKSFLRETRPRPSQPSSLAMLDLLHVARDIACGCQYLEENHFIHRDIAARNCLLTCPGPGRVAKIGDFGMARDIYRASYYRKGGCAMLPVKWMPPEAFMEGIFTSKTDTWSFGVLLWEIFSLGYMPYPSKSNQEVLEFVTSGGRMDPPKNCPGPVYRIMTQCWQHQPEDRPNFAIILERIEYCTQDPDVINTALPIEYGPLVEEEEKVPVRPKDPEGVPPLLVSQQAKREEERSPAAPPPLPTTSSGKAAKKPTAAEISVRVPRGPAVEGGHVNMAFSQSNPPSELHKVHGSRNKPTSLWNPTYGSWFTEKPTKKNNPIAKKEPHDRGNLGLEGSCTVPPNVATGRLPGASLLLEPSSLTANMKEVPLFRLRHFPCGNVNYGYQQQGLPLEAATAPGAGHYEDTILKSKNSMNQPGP

SMILES	IC50 [nM]
Cc1cc(Nc2nc(Nc3ccccc3S(=O)(=O)C(C)C)n3nccc3n2)c(OC(C)C)cc1C1CCN(C)CC1 [Ex 1, N2-(2-isopropoxy-5-methyl-4-(1-methylpiperidin-4-yl)phenyl)-N4-(2-(isopropylsulfonyl)phenyl)pyrazolo[1,5-a][1,3,5]triazine-2,4-diamine]	115
COc1cc(C2CCN(C(=O)CN(C)C)CC2)c(C)cc1Nc1nc(Nc2ccccc2S(=O)(=O)C(C)C)n2nccc2n1 [Ex 2]	11
COc1cc(C2CCN(C)CC2)c(C)cc1Nc1nc(Nc2ccccc2S(=O)(=O)C(C)C)n2nccc2n1 [Ex 3]	19
COc1cc(C2CCNCC2)c(C)cc1Nc1nc(Nc2ccccc2S(=O)(=O)C(C)C)n2nccc2n1 [Ex 4]	38
Cc1cc(CN2CCC(c3cc(OC(C)C)c(Nc4nc(Nc5ccccc5S(=O)(=O)C(C)C)n5nccc5n4)cc3C)CC2)[nH]n1 [Ex 5]	140
Cc1cc(Nc2nc(Nc3ccccc3S(=O)(=O)C(C)C)n3nccc3n2)c(OC(C)C)cc1C1CCN(Cc2cnn(C)c2)CC1 [Ex 6]	80
COc1cc(C2CCN(CCS(C)(=O)=O)CC2)c(C)cc1Nc1nc(Nc2ccccc2S(=O)(=O)C(C)C)n2nccc2n1 [Ex 7]	50
COc1cc(C2CCOCC2)c(C)cc1Nc1nc(Nc2ccccc2S(=O)(=O)C(C)C)n2nccc2n1 [Ex 10]	138
Cc1cc(C2CCNCC2)c(Cl)cc1Nc1nc(Nc2ccccc2S(=O)(=O)C(C)C)n2nccc2n1 [Ex 11]	1400
CNC(C)(C)C(=O)N1CCC(c2cc(OC)c(Nc3nc(Nc4ccccc4S(=O)(=O)C(C)C)n4nccc4n3)cc2C)CC1 [Ex 27]	44
COc1cc(C2CCN(C(=O)C3CCCCN3)CC2)c(C)cc1Nc1nc(Nc2ccccc2S(=O)(=O)C(C)C)n2nccc2n1 (centres unmarked) [Ex 29]	54
COc1cc(C2CCN(C(=O)C3COCCN3)CC2)c(C)cc1Nc1nc(Nc2ccccc2S(=O)(=O)C(C)C)n2nccc2n1 (centres unmarked) [Ex 32]	29
CC(C)S(=O)(=O)c1ccccc1Nc1nc(Nc2ccc(C3CCNCC3)cc2)nc2ccnn12 [Ex 37]	130
CC(C)S(=O)(=O)c1ccccc1Nc1nc(Nc2ccc3c(c2)CN(CCS(C)(=O)=O)CC3)nc2ccnn12 [Ex 39]	464
CC(C)S(=O)(=O)c1ccccc1Nc1nc(Nc2ccc3c(c2)CCN(CCS(C)(=O)=O)C3)nc2ccnn12 [Ex 40]	136
CC(C)S(=O)(=O)c1ccccc1Nc1nc(Nc2ccc3c(c2)CCNC3)nc2ccnn12 [Ex 41]	85
CC(C)S(=O)(=O)c1ccccc1Nc1nc(Nc2ccc3c(c2)CNCC3)nc2ccnn12 [Ex 42]	1020
Cc1cc(C2CCN(CCS(C)(=O)=O)CC2)c(C)cc1Nc1nc(Nc2ccccc2S(=O)(=O)C(C)C)n2nccc2n1 [Ex 45]	62
Cc1cc(C2CCN(CCS(C)(=O)=O)CC2)ccc1Nc1nc(Nc2ccccc2S(=O)(=O)C(C)C)n2nccc2n1 [Ex 46]	31
Cc1cc(Nc2nc(Nc3ccccc3S(=O)(=O)C(C)C)n3nccc3n2)ccc1C1CCN(CCS(C)(=O)=O)CC1 [Ex 47]	46
Cc1cc(C2CCN(C(=O)CCN(C)C)CC2)c(C)cc1Nc1nc(Nc2ccccc2S(=O)(=O)C(C)C)n2nccc2n1 [Ex 48]	59
Cc1cc(C2CCN(C(=O)CCN(C)C)CC2)ccc1Nc1nc(Nc2ccccc2S(=O)(=O)C(C)C)n2nccc2n1 [Ex 49]	129
COc1cc(C2CCN(C(=O)[C@H](C)NC(C)C)CC2)c(C)cc1Nc1nc(Nc2ccccc2S(=O)(=O)C(C)C)n2nccc2n1 [Ex 64]	28

Results, then the compound that gave them:

IC50 [nM]	SMILES
43	COc1cc(C2CCN(CC3CC3)CC2)c(C)cc1Nc1nc(Nc2ccccc2S(=O)(=O)C(C)C)n2nccc2n1 [Ex 8]
28	CNC(=O)CN1CCC(c2cc(OC)c(Nc3nc(Nc4ccccc4S(=O)(=O)C(C)C)n4nccc4n3)cc2C)CC1 [Ex 12]
15	COc1cc(C2CCN(CCC(N)=O)CC2)c(C)cc1Nc1nc(Nc2ccccc2S(=O)(=O)C(C)C)n2nccc2n1 [Ex 13]
26	COc1cc(C2CCN(C(=O)CN3CCCCC3)CC2)c(C)cc1Nc1nc(Nc2ccccc2S(=O)(=O)C(C)C)n2nccc2n1 [Ex 14]
31	COc1cc(C2CCN(C(=O)CN3CCCC3)CC2)c(C)cc1Nc1nc(Nc2ccccc2S(=O)(=O)C(C)C)n2nccc2n1 [Ex 15]
22	CNCC(=O)N1CCC(c2cc(OC)c(Nc3nc(Nc4ccccc4S(=O)(=O)C(C)C)n4nccc4n3)cc2C)CC1 [Ex 17]
39	COc1cc(C2CCN(C(=O)C3(N)CC3)CC2)c(C)cc1Nc1nc(Nc2ccccc2S(=O)(=O)C(C)C)n2nccc2n1 [Ex 18]
68	CNCCC(=O)N1CCC(c2cc(OC)c(Nc3nc(Nc4ccccc4S(=O)(=O)C(C)C)n4nccc4n3)cc2C)CC1 [Ex 19]
26	COc1cc(C2CCN(C(=O)CN3CCC3)CC2)c(C)cc1Nc1nc(Nc2ccccc2S(=O)(=O)C(C)C)n2nccc2n1 [Ex 20]
286	COc1cc(C2CCN(C(=O)CN3C[C@@H](O)[C@H](O)C3)CC2)c(C)cc1Nc1nc(Nc2ccccc2S(=O)(=O)C(C)C)n2nccc2n1 [Ex 21]
23	CCNC1(C(=O)N2CCC(c3cc(OC)c(Nc4nc(Nc5ccccc5S(=O)(=O)C(C)C)n5nccc5n4)cc3C)CC2)CC1 [Ex 22]
16	COc1cc(C2CCN(CC(N)=O)CC2)c(C)cc1Nc1nc(Nc2ccccc2S(=O)(=O)C(C)C)n2nccc2n1 [Ex 23]
21	CN[C@@H](C)C(=O)N1CCC(c2cc(OC)c(Nc3nc(Nc4ccccc4S(=O)(=O)C(C)C)n4nccc4n3)cc2C)CC1 [Ex 24]
22	COc1cc(C2CCN(C(=O)CCN(C)C)CC2)c(C)cc1Nc1nc(Nc2ccccc2S(=O)(=O)C(C)C)n2nccc2n1 [Ex 25]
25	CNC1(C(=O)N2CCC(c3cc(OC)c(Nc4nc(Nc5ccccc5S(=O)(=O)C(C)C)n5nccc5n4)cc3C)CC2)CC1 [Ex 26]
36	COc1cc(C2CCN(C(=O)C3CCCN3)CC2)c(C)cc1Nc1nc(Nc2ccccc2S(=O)(=O)C(C)C)n2nccc2n1 (centres unmarked) [Ex 31]
25	COc1cc(C2CCN(C(=O)C3CCCN3C)CC2)c(C)cc1Nc1nc(Nc2ccccc2S(=O)(=O)C(C)C)n2nccc2n1 (centres unmarked) [Ex 34]
150	COc1cc(C2CCN(C(=O)CNC[C@@H](O)CO)CC2)c(C)cc1Nc1nc(Nc2ccccc2S(=O)(=O)C(C)C)n2nccc2n1 [Ex 43]
18	CN[C@H](C)C(=O)N1CCC(c2cc(OC)c(Nc3nc(Nc4ccccc4S(=O)(=O)C(C)C)n4nccc4n3)cc2C)CC1 [Ex 44]
52	COc1cc(C2CCN(C(=O)[C@@H]3C[C@@H](O)CN3C)CC2)c(C)cc1Nc1nc(Nc2ccccc2S(=O)(=O)C(C)C)n2nccc2n1 [Ex 50]
42	COc1cc(C2CCN(C(=O)[C@@H]3C[C@H](F)CN3)CC2)c(C)cc1Nc1nc(Nc2ccccc2S(=O)(=O)C(C)C)n2nccc2n1 [Ex 54]
63	COc1cc(C2CCN(C(=O)[C@@H]3C[C@H](O)CN3)CC2)c(C)cc1Nc1nc(Nc2ccccc2S(=O)(=O)C(C)C)n2nccc2n1 [Ex 55]
79	COc1cc(C2CCN(C(=O)[C@H]3C[C@@H](O)CN3)CC2)c(C)cc1Nc1nc(Nc2ccccc2S(=O)(=O)C(C)C)n2nccc2n1 [Ex 56]
32	COc1cc(C2CCN(C(=O)CNC(C)C)CC2)c(C)cc1Nc1nc(Nc2ccccc2S(=O)(=O)C(C)C)n2nccc2n1 [Ex 57]
86	COc1cc(C2CCN(C(=O)CNCCO)CC2)c(C)cc1Nc1nc(Nc2ccccc2S(=O)(=O)C(C)C)n2nccc2n1 [Ex 58]
193	COc1cc(C2CCN(C(=O)CN3CC(O)C3)CC2)c(C)cc1Nc1nc(Nc2ccccc2S(=O)(=O)C(C)C)n2nccc2n1 [Ex 59]
31	COc1cc(C2CCN(C(=O)CN3CC[C@@H](O)C3)CC2)c(C)cc1Nc1nc(Nc2ccccc2S(=O)(=O)C(C)C)n2nccc2n1 [Ex 60]
34	COc1cc(C2CCN(C(=O)[C@H](C)N3CCC3)CC2)c(C)cc1Nc1nc(Nc2ccccc2S(=O)(=O)C(C)C)n2nccc2n1 [Ex 61]
58	COc1cc(C2CCN(C(=O)CN3CC[C@@H](F)C3)CC2)c(C)cc1Nc1nc(Nc2ccccc2S(=O)(=O)C(C)C)n2nccc2n1 [Ex 62]
53	COc1cc(C2CCN(C(=O)CNC(C)(C)C)CC2)c(C)cc1Nc1nc(Nc2ccccc2S(=O)(=O)C(C)C)n2nccc2n1 [Ex 63]
